Source: the supplement of paper PMC11061612

Assays:
Assay in all cases: combination Emax (second highest fraction inhibited in the dose matrix, 72 h); higher = more inhibition; extreme values may be limits of the assay
[1] = test system: MDA-MB-175-VII (Breast Carcinoma)
Method in brief: (§1)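 Cell lines grown in DMEM/F12 or RPMI with 10% FBS were plated in 1536-well plates and held 24 hours at 37°C, 5% CO2 before 72 hours of exposure to two-drug dose matrices, with DMSO typically at 0.2%. CellTiter-Glo 2.0 luminescence gave viability, which was converted to inhibition. Vehicle wells were set to 0 and blank wells to 1. Combination Emax is the second-highest inhibition in the matrix, and Bliss excess is the observed combination effect minus the expected EA + EB − EA·EB, where EA and EB are the single-agent effects.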

[2] = test system: NCI-H835 (Other Solid Carcinomas)
Method in brief: as §1

[3] = test system: RPMI-8402 (T-Lymphoblastic Leukemia)
Method in brief: as §1

[4] = test system: CAL-85-1 (Breast Carcinoma)
Method in brief: as §1

[5] = test system: SBC-3 (Small Cell Lung Carcinoma)
Method in brief: as §1

[6] = test system: COR-L105 (Lung Adenocarcinoma)
Method in brief: as §1

[7] = test system: MG-63 (Osteosarcoma)
Method in brief: as §1

[8] = test system: HT-1197 (Bladder Carcinoma)
Method in brief: as §1

[9] = test system: NCI-H1944 (Lung Adenocarcinoma)
Method in brief: as §1

[10] = test system: ATN-1 (T-Lymphoblastic Leukemia)
Method in brief: as §1

[11] = test system: SK-N-DZ (Neuroblastoma)
Method in brief: as §1

[12] = test system: HT-3 (Cervical Carcinoma)
Method in brief: as §1

[13] = test system: SUP-HD1 (Hodgkin's Lymphoma)
Method in brief: as §1

[14] = test system: SCC90 (Head and Neck Carcinoma)
Method in brief: as §1

[15] = test system: RS4-11 (B-Lymphoblastic Leukemia)
Method in brief: as §1

[16] = test system: TK (B-Cell Non-Hodgkin's Lymphoma)
Method in brief: as §1

[17] = test system: NCI-H2170 (Squamous Cell Lung Carcinoma)
Method in brief: as §1

[18] = test system: NCI-H1975 (Lung Adenocarcinoma)
Method in brief: as §1

[19] = test system: SNU-1 (Gastric Carcinoma)
Method in brief: as §1

[20] = test system: BT-474 (Breast Carcinoma)
Method in brief: as §1

Structure (SMILES)	combination Emax [1]	combination Emax [2]	combination Emax [3]	combination Emax [4]	combination Emax [5]	combination Emax [6]	combination Emax [7]	combination Emax [8]	combination Emax [9]	combination Emax [10]	combination Emax [11]	combination Emax [12]	combination Emax [13]	combination Emax [14]	combination Emax [15]	combination Emax [16]	combination Emax [17]	combination Emax [18]	combination Emax [19]	combination Emax [20]
C=CCn1c(=O)c2cnc(Nc3ccc(N4CCN(C)CC4)cc3)nc2n1-c1cccc(C(C)(C)O)n1 [AZD1775] + Nc1ccn([C@@H]2O[C@H](CO)[C@@H](O)C2(F)F)c(=O)n1 [Gemcitabine] (first compound max 1 µM, partner max 0.3 µM)	0.456	0.476	1	0.697	0.949	0.428	0.955													
CN(CCO)CC[C@H](CSc1ccccc1)Nc1ccc(S(=O)(=O)NC(=O)c2ccc(N3CCC([C@@H](O)c4ccccc4-c4ccc(Cl)cc4)CC3)cc2)cc1S(=O)(=O)C(F)(F)F [AZD4320] + CS(=O)(=O)CCNCc1ccc(-c2ccc3ncnc(Nc4ccc(OCc5cccc(F)c5)c(Cl)c4)c3c2)o1 [Lapatinib] (first compound max 1 µM, 7x7, partner max 10 µM)	1	0.982	0.988	0.957	0.407	0.917	0.596													
Cc1c2c(nn1C)CSCc1cc(n(C)n1)CSc1cc(c3ccccc3c1)OCCCc1c(C(=O)O)n(C)c3c-2c(Cl)ccc13 [AZD5991] + CC(=O)O[C@H]1C(=O)[C@@]2(C)[C@H]([C@H](OC(=O)c3ccccc3)[C@]3(O)C[C@H](OC(=O)[C@H](O)[C@@H](NC(=O)c4ccccc4)c4ccccc4)C(C)=C1C3(C)C)[C@]1(OC(C)=O)CO[C@@H]1C[C@@H]2O [Paclitaxel] (first compound max 1 µM, 7x7, partner max 3 µM)	0.505	0.453	1	0.806	0.952	0.183	0.88													
Cc1c2c(nn1C)CSCc1cc(n(C)n1)CSc1cc(c3ccccc3c1)OCCCc1c(C(=O)O)n(C)c3c-2c(Cl)ccc13 [AZD5991] + CS(=O)(=O)CCNCc1ccc(-c2ccc3ncnc(Nc4ccc(OCc5cccc(F)c5)c(Cl)c4)c3c2)o1 [Lapatinib] (first compound max 1 µM, 7x7, partner max 10 µM)	0.973	0.332	0.955	0.825	0.28	0.688	0.157													
Cc1c2c(nn1C)CSCc1cc(n(C)n1)CSc1cc(c3ccccc3c1)OCCCc1c(C(=O)O)n(C)c3c-2c(Cl)ccc13 [AZD5991] + Nc1ccn([C@@H]2O[C@H](CO)[C@@H](O)C2(F)F)c(=O)n1 [Gemcitabine] (first compound max 1 µM, 7x7, partner max 0.3 µM)	0.48	0.42	1	0.558	0.962	0.377	0.82													
CC1(C)CCC(CN2CCN(c3ccc(C(=O)NS(=O)(=O)c4ccc(NCC5CCOCC5)c([N+](=O)[O-])c4)c(Oc4cnc5[nH]ccc5c4)c3)CC2)=C(c2ccc(Cl)cc2)C1 [Venetoclax] + C=CCn1c(=O)c2cnc(Nc3ccc(N4CCN(C)CC4)cc3)nc2n1-c1cccc(C(C)(C)O)n1 [AZD1775] (first compound max 1 µM, partner max 1 µM)	0.444		1	0.473	0.899	0.372	0.626	0.487	0.728	0.977	0.999	0.191	0.921	0.838	1	1	0.652	0.393	0.769	0.516
CC1(C)CCC(CN2CCN(c3ccc(C(=O)NS(=O)(=O)c4ccc(NCC5CCOCC5)c([N+](=O)[O-])c4)c(Oc4cnc5[nH]ccc5c4)c3)CC2)=C(c2ccc(Cl)cc2)C1 [Venetoclax] + CCN(CCO)CCCOc1ccc2c(Nc3cc(CC(=O)Nc4cccc(F)c4)[nH]n3)ncnc2c1 [AZD2811] (first compound max 1 µM, 7x7, partner max 1 µM)	0.23		0.735	0.156	0.766	0.211	0.23	0.221	0.255	0.866	0.552	0.178	0.922	0.552	1	1	0.545	0.216	0.297	0.218
CC1(C)CCC(CN2CCN(c3ccc(C(=O)NS(=O)(=O)c4ccc(NCC5CCOCC5)c([N+](=O)[O-])c4)c(Oc4cnc5[nH]ccc5c4)c3)CC2)=C(c2ccc(Cl)cc2)C1 [Venetoclax] + CN(C)CCCOc1ccc(-c2ccc3ncc4c(c3c2)n(C2CCOCC2)c(=O)n4C)cn1 [AZD0156] (first compound max 1 µM, 7x7, partner max 1 µM)	0.174		0.188	0.136	0.766	0.186	0.217	0.198	0.228	0.402	0.256	0.145	0.761	0.324	1	0.969	0.243	0.216	0.225	0.175
CC1(C)CCC(CN2CCN(c3ccc(C(=O)NS(=O)(=O)c4ccc(NCC5CCOCC5)c([N+](=O)[O-])c4)c(Oc4cnc5[nH]ccc5c4)c3)CC2)=C(c2ccc(Cl)cc2)C1 [Venetoclax] + COc1cc(Nc2ncc3c(n2)-c2ccc(Cl)cc2C(c2c(F)cccc2OC)=NC3)ccc1C(=O)O [Alisertib] (first compound max 1 µM, 7x7, partner max 10 µM)	0.238		0.718	0.438	0.942	0.377	0.669	0.163	0.544	0.901	0.888	0.0652	0.906	0.687	1	1	0.666	0.469	0.327	0.242
CC1(C)CCC(CN2CCN(c3ccc(C(=O)NS(=O)(=O)c4ccc(NCC5CCOCC5)c([N+](=O)[O-])c4)c(Oc4cnc5[nH]ccc5c4)c3)CC2)=C(c2ccc(Cl)cc2)C1 [Venetoclax] + C[C@@H]1COCCN1C2=NC(=NC(=C2)C3(CC3)[S@](=N)(=O)C)C4=C5C=CNC5=NC=C4 [AZD6738] (first compound max 1 µM, 7x7, partner max 10 µM)	0.251		0.992	0.571	0.926	0.421	0.494	0.441	0.892	0.973	0.946	0.452	0.911	0.373	1	1	0.691	0.433	0.798	0.206
CC1(C)CCC(CN2CCN(c3ccc(C(=O)NS(=O)(=O)c4ccc(NCC5CCOCC5)c([N+](=O)[O-])c4)c(Oc4cnc5[nH]ccc5c4)c3)CC2)=C(c2ccc(Cl)cc2)C1 [Venetoclax] + C[C@@H](Nc1cc(F)cc(F)c1)c1cc(C(=O)N(C)C)cc2c(=O)cc(N3CCOCC3)oc12 [AZD8186] (first compound max 1 µM, 7x7, partner max 3 µM)	0.315		0.431	0.146	0.507	0.24	0.143	0.126	0.184	0.616	0.256	0.0586	0.839	0.29	1	1	0.166	0.22	0.154	0.163
CC1(C)CCC(CN2CCN(c3ccc(C(=O)NS(=O)(=O)c4ccc(NCC5CCOCC5)c([N+](=O)[O-])c4)c(Oc4cnc5[nH]ccc5c4)c3)CC2)=C(c2ccc(Cl)cc2)C1 [Venetoclax] + Cc1cc2ncnn2cc1Nc1ncc2c(n1)n(C1CCOCC1)c(=O)n2C [AZD7648] (first compound max 1 µM, 7x7, partner max 10 µM)	0.243		0.287	0.284	0.543	0.274	0.201	0.214	0.353	0.47	0.399	0.135	0.795	0.351	1	0.967	0.282	0.392	0.288	0.197
CC1(C)CCC(CN2CCN(c3ccc(C(=O)NS(=O)(=O)c4ccc(NCC5CCOCC5)c([N+](=O)[O-])c4)c(Oc4cnc5[nH]ccc5c4)c3)CC2)=C(c2ccc(Cl)cc2)C1 [Venetoclax] + Cn1cnc2c(F)c(Nc3ccc(Br)cc3Cl)c(C(=O)NOCCO)cc21 [Selumetinib] (first compound max 1 µM, 7x7, partner max 3 µM)	0.255		0.084	0.356	0.605	0.362	0.148	0.254	0.239	0.137	0.246	0.118	0.809	0.726	1	0.981	0.107	0.28	0.221	0.0915
